Laboratory results reported in patent US20230172206A1 (BASF SE, priority 2020, published 2023).

How the values were obtained:
[1] = test system: Phakopsora pachyrhizi (F129L); assay: Protective control of soybean rust on soybeans (PHAKPA P6); type: in vivo; settings: for % PHAKPA (F129L) Disease level P6 at 4 ppm: protective P6, 4 ppm; for % PHAKPA (F129L) Disease level P6 at 16 ppm: protective P6, 16 ppm; for PHAKPA (F129L) Disease level (%) P6 at 16 ppm: protective, inoculation six days after spraying, % diseased leaf area
[2] = test system: Phakopsora pachyrhizi (F129L); assay: Protective control of soybean rust on soybeans (PHAKPA P2); type: in vivo; settings: for % PHAKPA (F129L) Disease level P2 at 4 ppm: protective P2, 4 ppm; for % PHAKPA (F129L) Disease level P2 at 16 ppm: protective P2, 16 ppm; for PHAKPA (F129L) Disease level (%) P2 at 16 ppm: protective, inoculation 2 days after spraying, % diseased leaf area

SMILES	% PHAKPA (F129L) Disease level P6 at 4 ppm ([1]; soybean rust F129L isolate)	% PHAKPA (F129L) Disease level P6 at 16 ppm ([1]; soybean rust F129L isolate)	% PHAKPA (F129L) Disease level P2 at 4 ppm ([2]; soybean rust F129L isolate)	% PHAKPA (F129L) Disease level P2 at 16 ppm ([2]; soybean rust F129L isolate)	PHAKPA (F129L) Disease level (%) P6 at 16 ppm [1]	PHAKPA (F129L) Disease level (%) P2 at 16 ppm [2]	% PHAKPA (F129L) Disease level P6 at 4 ppm ([1]; F129L isolate)	% PHAKPA (F129L) Disease level P6 at 16 ppm ([1]; F129L isolate)	% PHAKPA (F129L) Disease level P2 at 4 ppm ([2]; F129L isolate)	% PHAKPA (F129L) Disease level P2 at 16 ppm ([2]; F129L isolate)
CO/N=C(/C(=O)OC)c1cccc(C)c1CO/N=C(\CC(F)(F)F)c1cccc(C(F)(F)F)c1 [compound 250]	90%	80%	90%	90%						
CO/C=C(/C(=O)OC)c1cccc(C)c1CO/N=C(\C)c1ccccc1C(F)(F)F [compound 244]	15%	2%	14%	0%	2%	0%				
CNC(=O)/C(=N/OC)c1cccc(C)c1CO/N=C(\C)c1cccc(F)c1C(F)(F)F [compound 326]	30%	1%	25%	0%						
CO/N=C(/C(=O)OC)c1cccc(C)c1CO/N=C(\C)c1cc(F)c(F)cc1C(F)(F)F [compound 409]							83%	73%	77%	40%
CNC(=O)/C(=N/OC)c1cccc(C)c1CO/N=C(\C)c1c(F)ccc(F)c1OC(F)(F)F [compound 346]	5%	0%	4%	0%						
CNC(=O)/C(=N/OC)c1cccc(C)c1CO/N=C(\C)c1cccc(OC/C(C)=N/OC)c1 [compound 226]	57%	7%	28%	3%						
CNC(=O)/C(=N/OC)c1cccc(C)c1CO/N=C(\C)c1c(F)cc(Br)cc1OC(F)(F)F [compound 355]	48%	4%	34%	7%						
CO/N=C(/C)c1ccc(/C(C)=N/OCc2c(C)cccc2/C(=N\OC)C(=O)OC)c(OC(F)(F)F)c1 [compound 418]							73%	57%	70%	33%
CO/N=C(/C(=O)OC)c1cccc(C)c1CO/N=C(\C)c1ccc(-c2ccc(F)cc2)cc1C(F)(F)F [compound 425]							53%	40%	27%	28%
CO/C=C(/C(=O)OC)c1cccc(C)c1CO/N=C(\C)c1ccc(C)cc1C(F)(F)F [compound 446]							6%	0%	2%	0%
CNC(=O)/C(=N/OC)c1cccc(C)c1CO/N=C(\C)c1c(F)cccc1Cl [compound 284]	62%	34%	63%	44%						
CO/C=C(/C(=O)OC)c1cccc(C)c1CO/N=C(\C)c1c(Cl)cc(Cl)cc1OC(F)(F)F [compound 436]							73%	27%	70%	15%
CNC(=O)/C(=N/OC)c1cccc(C)c1CO/N=C(\C)c1c(F)cccc1OC(F)(F)F [compound 325]	22%	1%	24%	4%						
CNC(=O)/C(=N/OC)c1cccc(C)c1CO/N=C(\C)c1ccc(OC)cc1OC(F)(F)F [compound 337]	13%	1%	9%	0%						
CNC(=O)/C(=N/OC)c1cccc(C)c1CO/N=C(\C)c1ccc(Cl)c(F)c1CC(F)(F)F [compound 412]							40%	6%	47%	6%
CNC(=O)/C(=N/OC)c1cccc(C)c1CO/N=C(\C)c1ccccc1C(C)C [compound 220]	100%	77%	90%	30%						
CNC(=O)/C(=N/OC)c1cccc(C)c1CO/N=C(\C)c1c(Cl)cc(Cl)cc1OC(F)(F)F [compound 428]							83%	20%	70%	11%

SMILES	% PHAKPA (F129L) Disease level P6 at 4 ppm ([1]; soybean rust F129L isolate)	% PHAKPA (F129L) Disease level P6 at 16 ppm ([1]; soybean rust F129L isolate)	% PHAKPA (F129L) Disease level P2 at 4 ppm ([2]; soybean rust F129L isolate)	% PHAKPA (F129L) Disease level P2 at 16 ppm ([2]; soybean rust F129L isolate)	PHAKPA (F129L) Disease level (%) P6 at 16 ppm [1]	PHAKPA (F129L) Disease level (%) P2 at 16 ppm [2]	% PHAKPA (F129L) Disease level P6 at 4 ppm ([1]; F129L isolate)	% PHAKPA (F129L) Disease level P6 at 16 ppm ([1]; F129L isolate)	% PHAKPA (F129L) Disease level P2 at 4 ppm ([2]; F129L isolate)	% PHAKPA (F129L) Disease level P2 at 16 ppm ([2]; F129L isolate)
CNC(=O)/C(=N/OC)c1cccc(C)c1CO/N=C(\CC(C)C)c1cccc(C(F)(F)F)c1 [compound 235]	87%	77%	100%	73%						
CNC(=O)/C(=N/OC)c1cccc(C)c1CO/N=C(\CC(F)(F)F)c1cc(Cl)cc(Cl)c1 [compound 255]	100%	87%	97%	83%						
CNC(=O)/C(=N/OC)c1cccc(C)c1CO/N=C(\CC1CC1)c1cccc(C(F)(F)F)c1 [compound 234]	53%	15%	53%	18%						
CO/N=C(/C(=O)OC)c1cccc(C)c1CO/N=C(\C)c1c(F)cc(F)cc1C(F)(F)F [compound 360]	80%	5%	53%	9%						
CO/N=C(/C(=O)OC)c1cccc(C)c1CO/N=C(\C)c1ccc(F)cc1F [compound 266]	90%	43%	67%	18%						
CNC(=O)/C(=N/OC)c1cccc(C)c1CO/N=C(\C)c1ccc(Cl)c(Cl)c1C(F)(F)F [compound 431]							40%	12%	32%	7%
CNC(=O)/C(=N/OC)c1cccc(C)c1CO/N=C(\C)c1ccccc1CC(F)(F)F [compound 223]	28%	0%	4%	0%						
CNC(=O)/C(=N/OC)c1cccc(C)c1CO/N=C(\C)c1ccccc1C(F)F [compound 298]	97%	37%	63%	7%						
CO/N=C(/C(=O)OC)c1cccc(C)c1CO/N=C(\C)c1ccc(C)c(C(F)(F)F)c1 [compound 229]	77%	6%	27%	2%						
CNC(=O)/C(=N/OC)c1cccc(C)c1CO/N=C(\C)c1cc(F)c(F)cc1CC(F)(F)F [compound 406]							67%	23%	97%	30%
C=C(C)c1cccc(/C(=N\OC)C(=O)NC)c1CO/N=C(\C)c1ccccc1 [compound 399]							90%	15%	67%	8%
CCC/C(=N\OCc1c(C)cccc1/C(=N\OC)C(=O)OC)c1ccccc1 [compound 387]							80%	47%	60%	30%
CNC(=O)/C(=N/OC)c1cccc(C)c1CO/N=C(\C)c1ccc(C)c(C(F)(F)F)c1 [compound 230]	73%	4%	22%	1%						
CNC(=O)/C(=N/OC)c1cccc(C)c1CO/N=C(\C)c1cc(F)ccc1F [compound 131]	2%	0%	0%	0%	0%	0%				
CNC(=O)/C(=N/OC)c1cccc(C)c1CO/N=C(\C)c1c(F)cc(Br)cc1C(F)(F)F [compound 358]	83%	18%	77%	17%						
CO/N=C(/C(=O)OC)c1cccc(C)c1CO/N=C(\C)c1cc(F)ccc1C(F)(F)F [compound 249]	90%	43%	87%	37%						
C#Cc1cc(F)c(F)c(/C(C)=N/OCc2c(C)cccc2/C(=N\OC)C(=O)OC)c1 [compound 242]	87%	20%	87%	10%						
